# Assay results taken from publication PMC12655637, “Design, Synthesis, and Mechanistic Study of Novel Ciprofloxacin/Thiazole Chalcone Hybrids as Potential Anticancer Agents” (Pharmaceuticals, 2025).
# Assays:
# tubulin polymerization = system: tubulin polymerization; design: method as in PMID 40308265; conditions: read-out: IC50 inhibition of tubulin polymerization; cited from earlier work
# [1] = In vitro cytotoxicity against normal cell line WI 38; assay type: cell-based; conditions: human, WI-38 normal cell line; ± SEM
# From the text: Detailed results of cytotoxicity of compounds 4b and 4d against normal cell
# Blank CC Sample No. 4b/WI38 sample no. 4d/WI38
# conc. viability conc. viability
# [2] = system: non-small-cell lung cancer A459; design: method as in PMID 27555286; conditions: A459 ref 30; cited from earlier work
# [3] = system: human melanoma LOX IMVI cancer cell line; design: method as in PMID 39406816; conditions: LOX IMVI ref 33; cited from earlier work
# [4] = system: renal cancer cell line UO-31; design: method as in PMID 29547830; conditions: UO-31 ref 31; cited from earlier work
# CCRF-CEM = system: CCRF-CEM; design: method as in PMID 39338317; conditions: CCRF-CEM ref 14; cited from earlier work
# RPMI-8226 = system: RPMI-8226; design: method as in PMID 39338317; conditions: RPMI-8226 ref 14; cited from earlier work
# OVCAR-3 = system: OVCAR-3; design: method as in PMID 39338317; conditions: OVCAR-3 ref 14; cited from earlier work
# MDA-MB-468 = system: MDA-MB-468; design: method as in PMID 39338317; conditions: MDA-MB-468 ref 14; cited from earlier work
# leukemia subpanel = system: leukemia subpanel; design: method as in PMID 24090914; conditions: leukemia subpanel ref 26; cited from earlier work
# MCF-7 = system: MCF-7; design: method as in PMID 40308265; conditions: MCF-7 ref 32; cited from earlier work
# MDAMB-231 = system: MDAMB-231; design: method as in PMID 40308265; conditions: MDAMB-231 ref 32; cited from earlier work
# PC-3 = system: PC-3; design: method as in PMID 40308265; conditions: PC-3 ref 32; cited from earlier work
# HCT-116 = system: HCT-116; design: method as in PMID 40308265; conditions: HCT-116 ref 32; cited from earlier work
compound,measurement,setting,value
COc1ccc(/C=C\c2cc(OC)c(OC)c(OC)c2)cc1O [CA-4],IC50,tubulin polymerization,8.33 µM
"COc1cccc2c1C(=O)c1c(O)c3c(c(O)c1C2=O)C[C@@](O)(C(=O)CO)C[C@@H]3O[C@H]1C[C@H](N)[C@H](O)[C@H](C)O1 [Doxorubicin, doxorubicin, reference compound]",IC50,[1],19.8 ± 0.68 µM
O=C(CN1CCN(c2cc3c(cc2F)c(=O)c(C(=O)O)cn3C2CC2)CC1)Nc1ccc(Cl)cc1 [III],IC50,[2],14.8 µM
O=C(O)c1cn(C2CC2)c2cc(N3CCN(C(=O)CCCN4C(=O)S/C(=C\c5ccc(F)cc5)C4=O)CC3)c(F)cc2c1=O [IIX],IC50,[3],25.4 µM
O=C(CN1CCN(c2cc3c(cc2F)c(=O)c(C(=O)O)cn3C2CC2)CC1)N/N=C/c1ccccc1O [IV],IC50,[4],750 nM
O=C(/C=C/c1ccc(Cl)cc1)c1c[nH]c(=S)s1 [VII],IC50,CCRF-CEM,2880 nM
same,IC50,RPMI-8226,2400 nM
same,IC50,OVCAR-3,2820 nM
same,IC50,MDA-MB-468,2510 nM
COc1cc(/C=C/C(=O)c2ccc(NC(=O)N3CCN(c4cc5c(cc4F)c(=O)c(C(=O)O)cn5C4CC4)CC3)cc2)cc(OC)c1OC [VI],Selectivity ratio,leukemia subpanel,6.71
COc1cc(/C=C/C(=O)c2sc(SCC(=O)Nc3nc(-c4ccccc4)cs3)nc2C)cc(OC)c1OC [V],IC50,MCF-7,4 µM
same,IC50,MDAMB-231,6 µM
same,IC50,PC-3,7 µM
same,IC50,HCT-116,8 µM
same,IC50,tubulin polymerization,2.69 µM
